Assay results reported in patent publication US20220218714A1, “METHOD OF TREATING CANCER” (Epizyme, Inc., priority 2013, published 2022).

Legend:
[1] = PK values in HS-SY-II xenograft model (plasma concentration, LC/MS/MS); assay type: in vivo, mice; conditions: oral twice daily for 7 days; 5 minutes before and 3 hours after the last dose
Description: (§1) HS-SY-II cells were harvested during mid-log phase growth, and resuspended in Hank balanced salt solution with 50% Matrigel (BD Biosciences). Balb/C-nu mice (Charles River Laboratories Japan) received 1×10^7 cells (0.1 mL cell suspension) subcutaneously in the right flank. Mice carrying tumors of approximately 200 mm^3 (31 days after injection) were sorted into treatment groups with similar mean tumor volumes. Compound A or vehicle (0.5% MC+0.1% Tween-80 in water) was administered at the indicated doses on twice a day for 7 days by oral gavage. Each dose was delivered in a volume of 0.2 mL/20 g mouse (10 mL/kg), and adjusted for the last recorded weight of individual animals. Peripheral blood samples were collected at approximately 5 minutes before and 3 hours after the last dose from Compound A-treated mice. After obtaining plasma samples by centrifugation, the analysis for plasma concentrations of Compound A was conducted by the liquid chromatography-tandem mass spectrometry (LC/MS/MS) method. The UPLC system (Acquity, Waters) equipped with a mass spectrometer (Quattro premier, MICROMASS) was used for quantification of Compound A. The concentrations are plotted (n=5) in FIG. 7A. Each bar represents a mean of plasma concentration in each group.

[2] = system: H3K27me3 in HS-SY-II xenograft; assay: PD alterations in HS-SY-II xenograft model (tumor H3K27me3 ELISA, 7 days); assay type: in vivo, mice; conditions: for Mean 2 (H3K27me3 level in tumor, fold change to vehicle): vehicle mean = 1; for Mean Diff. (vehicle vs. treated, tumor H3K27me3): Dunnett's multiple comparisons test; for Significant? (vehicle vs. treated, tumor H3K27me3): Dunnett's test, alpha 0.05
Description: as §1
For FIG. 10D, tumors were snap-frozen in liquid nitrogen. Frozen tumor samples were cut into a 20 mg pieces and placed in 500 μL of ice cold nuclear extraction buffer (10 mM Tris-HCl, 10 mM MgCl2, 25 mM KCl, 1% Triton X-100, 8.6% Sucrose, plus lx Halt Protease inhibitor cocktail (1861281, Thermo Scientific)) and homogenized with a handy micro homogenizer. Nuclei were collected by centrifugation at 600 g for 5 minutes at 4° C. and washed once with ice cold PBS. Supernatant was removed and histones extracted for one hour with 100 μL, of 0.4 N cold sulfuric acid. Extracts were clarified by centrifugation at 10,000 g for 10 minutes at 4° C. and transferred to a fresh microcentrifuge tube containing 1 mL of ice cold acetone. Histones were precipitated at -20° C. for overnight, pelleted by centrifugation at 10,000 g for 10 minutes and resuspended in 100 p1 of water. Histones were quantified using the BCA protein assay (23225, Pierce). The diluted histones were coated on Immulon 4HBX plates (3855, Thermo Scientific) overnight and ELISA was performed. Briefly, after blocking with PBS containing 0.05% Tween 20 and 2% bovine serum albumin (BSA), the plates were incubated with H3K27me3 antibody (#9733, Cell Signaling Technology) or total histone H3 antibody (AB1791, Abcam). The plates were further incubated with horseradish peroxidase conjugated anti-rabbit IgG (#7074, Cell Signaling Technology), followed by incubated with TMB substrate (TMBS-0100-01, BioFx Laboratories). Subsequently, the developed colors in the wells were measured using a plate spectrophotometer (SpectraMax 250, Molecular Devices) at 450 nm (reference wavelength 650 nm). The H3K27me3 levels were adjusted to total histone H3, and expressed as fold changes to vehicle control. The values are plotted (n=6) in FIG. 10D. Each bar represents a mean of the values in each group. […] Histones were extracted and quantified, and the levels of H3K27me3 were analyzed as described above. Trimethylation levels of H3K27 in the tumor are plotted (n=5) in FIG. 7B. Each bar represents a mean ±SEM of the trimethylation level in each group.

HS-SY-II xenograft = assay: Gene expression changes in vivo in HS-SY-II xenograft model (RT-PCR); set-up: species or system mice; conditions: 500 mg/kg oral twice daily for 7 days; 3 hours after last dose
Description: (§2) Tumor samples were collected at approximately 3 hours after the last dose from mice used in analysis for PK values and PD alterations. The tumor samples were stored using RNAlater (AM7020, Life technologies). Total RNA isolation and the reverse transcription were performed by RNeasy Mini Kit (74104, Qiagen) and High capacity cDNA Reverse Transcription kit (4368814, Life technologies) according to the manufacturer's instruction. The cDNA samples were used for real time-PCR as described above.
as §2, with “above. […] Additionally or alternatively, total RNAs were isolated from frozen tumor samples. The TruSeq' RNA Sample Prep Kit (Illumina) was used to build cDNA library for paired-end sequencing on the Illumina HiSeq (details described in Illumina TruSeq RNA Sample Preparation Guide). […] Paired-end reads from ˜50M clusters per sample were generated using TruSeq SBS kit on the Illumina HiSeq.” for “above.”

[3] = system: PDX of synovial sarcoma tumors; assay: Tumor volume in patient-derived xenografts (PDX) of synovial sarcoma, 35 days dosing; assay type: in vivo, athymic nude mice; conditions: two synovial sarcoma PDX; oral 125, 250 or 500/400 mg/kg for 35 days
Description: FIGS. 11A and 11C show mean in vivo tumor volumes for athymic nude mice bearing one of two different PDX of synovial sarcoma tumors. FIGS. 11B and 11D show percent survival for mice bearing a PDX. Mice were dosed with either vehicle (oral for 35 days), Compound A (oral: 125 mg/kg, 250 mg/kg, or 500/400 mg/kg for 35 days) or Doxorubicin (iv: 3 mg/kg, once a week for 3 weeks). FIGS. 11A and 11B show data from mice bearing PDX from high-grade spindle cell sarcoma. FIGS. 11C and 11D show data from mice bearing PDX.

SW982 cells = conditions: SW982 in vitro culture
[4] = tumor H3K27me3 across dose groups (FIG. 7B)

CCN(c1cc(-c2ccc(CN3CCOCC3)cc2)cc(C(=O)NCc2c(C)cc(C)[nH]c2=O)c1C)C1CCOCC1 [Compound A]
plasma concentrations [1]: Dose dependent exposure
Mean 2 (H3K27me3 level in tumor, fold change to vehicle) ([2]; 125 mg/kg oral twice daily 7 days): 0.7
Mean Diff. (vehicle vs. treated, tumor H3K27me3) ([2]; 125 mg/kg): 0.3
Significant? (vehicle vs. treated, tumor H3K27me3) ([2]; 125 mg/kg): Yes
Mean 2 (H3K27me3 level in tumor, fold change to vehicle) ([2]; 250 mg/kg oral twice daily 7 days): 0.55
Mean Diff. (vehicle vs. treated, tumor H3K27me3) ([2]; 250 mg/kg): 0.45
Significant? (vehicle vs. treated, tumor H3K27me3) ([2]; 250 mg/kg): Yes
Mean 2 (H3K27me3 level in tumor, fold change to vehicle) ([2]; 500 mg/kg oral twice daily 7 days): 0.304
Mean Diff. (vehicle vs. treated, tumor H3K27me3) ([2]; 500 mg/kg, listed as E7435): 0.696
Mean Diff. (vehicle vs. treated, tumor H3K27me3) ([2]; 500 mg/kg, listed as E7438): 0.896
Significant? (vehicle vs. treated, tumor H3K27me3) ([2]; 500 mg/kg): Yes
H3K27me3 levels in tumor tissues ([2]; oral twice daily for 7 days): dose dependent decrease
Is linear trend significant (P <0.05)? [2, 4]: Yes
Post test for linear trend: R squared [2, 4]: 0.9104
Post test for linear trend: Slope [2, 4]: −0.1119
CDKN2A expression in tumor (HS-SY-II xenograft): significantly upregulated
tumor volume [3]: dose-related tumor volume decrease
ATF3 and EGR1 expression (SW982 cells): not in SW982
